Experimental findings from patent EP1268431B1 (Wyeth, priority 2000, dated 2001) are described below.

Test [1] has as its system Human adenocarcinoma cell line LoVo. Kind of test: Cell Based Screen for Inhibitors of Raf Kinase, LoVo cells. To be noted: four days, SRB.
The test system of test [2] is human adenocarcinoma cell line CaCo-2. Kind of test: Cell Based Screen for Inhibitors of Raf Kinase, CaCo-2 cells. The note with it: CaCo-2, four days, SRB.
Test [3] addresses T1, Raf-1 (c-Raf) (Homo sapiens, UniProt P04049).
T1 construct: Sf9 insect cell lysate containing full length 6his-tagged recombinant human c-Raf; 6his; host or cells: Sf9 insect cells (c-Raf, used as lysate); E. coli (GST-MEK1, GST-MAPK)
Kind of test: Raf1 Kinase Cascade Assay. It counts as biochemical. The protocol:
(Specific Activity: -200U/ml). Human Non-active Mek-1-GST and human GST-MAP kinase (recombinant proteins produced in E. coli).
• Assay Dilution Buffer (ADB); 20mM MOPS, pH 7.2, 25mM β-glycerol phosphate, 5mM EGTA, 1mM sodium orthovanadate, 1mM dithiothreitol. • Magnesium/ATP Cocktail: 500µM cold ATP and 75 mM magnesium chloride in ADB. • Active Kinase: Human Active c-Raf: Use at 0.4U per assay point. • Non-active GST-MEK1: Use at 0.1 µg per assay point. • Non-active GST-p42 MAP Kinase: Use at 1.0 µg per assay point.
• TBST - Tris (50 mM, pH 7.5), NaCl (150 mM), Tween-20 (0.05 %) • Superblock (Pierce) • Anti-GST Ab (Pharmacia) • Anti-Phospho MAPK (Sigma) • Anti-Mouse Ab / Europium conjugate (Wallac)
IC50 determinations - done on compounds from single point assays with >80% inhibition. Typically Raf-1 assay is run at compound concentrations from 10 µM to 30 nM in half log dilutions. (% inhibition is determined for each compound concentration).

Values joined by “and” are separate entries in the source; they are usually repeats but may differ in a detail not shown here. Equal entries are not always repeated.

For orientation: IC50 means the midpoint of a concentration-inhibition curve. A high value points to lower potency. Regarding “4-({3-chloro-4-[(1-methyl-1H-imidazol-2-yl)sulfanyl]phenyl}amino) -7-[5-(1-pyridinyl]-3-quinolinecarbonitrile [Example 180]”, the results for the IC50 in test [1], in test [2] and in test [3] were 0.0056 µM, 0.93 µM and 0.0037 µM, respectively.

As for “4-({3-chloro-4-[(1-methyl-1H-imidazol-2-yl)sulfanyl]phenyl}amino)-7-[6-(1-piperidinyl)-3-pyridinyl]-3-quinolinecarbonitrile [Example 211]”, the IC50 in test [1] was 0.0053 µM; in test [2] it was above 1 µM; in test [3] it was 0.006 µM.

As for “4-{3-chloro-4-[(1-methyl-1H-imidazol-2-yl)sulfanyl]anilino}-7-[4-(1-piperidinylmethyl)phenyl]-3-quinolinecarbonitrile [Example 136]”, the IC50 in test [1] is 0.011 µM; in test [2] it was above 1 µM; in test [3], 0.0025 µM and 0.0018 µM.

Turning to “4-{3-chloro-4-[(1-methyl-1H-imidazol-2-yl)sulfanyl]anilino}-7-{5-[(4-ethyl-1-piperazinyl)methyl]-2-furyl}-3-quinolinecarbonitrile [Example 156]”, the IC50 in test [1] is 0.0056 µM; in test [2], 1 µM; in test [3], 0.009 µM and 0.012 µM.

For `Cn1ccnc1Sc1ccc(Nc2c(C#N)cnc3cc(-c4csc(CN5CCOCC5)c4)ccc23)cc1Cl` [Example 33, 4-{3-Chloro-4-[(1-methyl-1H-imidazol-2-yl)sulfanyl]anilino}-7-[5-(4-morpholinylmethyl)-3-thienyl]-3-quinolinecarbonitrite], the IC50 in test [1] and in test [3] was 0.006 µM throughout.

Regarding `Cn1ccnc1Sc1ccc(Nc2c(C#N)cnc3cc(-c4ccc(CN5CCNCC5)cc4)ccc23)cc1Cl` [Example 97, 4-({3-Chloro-4-[(1-methyl-1H-imidazol-2-yl)sulfanyl]phenyl}amino)-7-[4-(1-piperazinylmethyl)phenyl]-3-quinolinecarbonitrile], the results for the IC50 in test [1], in test [2] and in test [3] were 0.033 µM, above 1 µM and 0.016 µM, respectively.

As to `Cn1ccnc1Sc1ccc(Nc2c(C#N)cnc3cc(-c4ccc(CN5CCOCC5)cc4)ccc23)cc1Cl` [Example 138], the IC50 in test [1] stood at 0.0062 µM; in test [2], 0.81 µM; in test [3], 0.0056 µM.

Take `Cn1ccnc1Sc1ccc(Nc2c(C#N)cnc3cc(-c4ccc(CN5CCCCC5)o4)ccc23)cc1Cl` [Example 155, 4-{3-chloro-4-[(1-methyl-1H-imidazol-2-yl)sulfanyl]anilino}-7-[5-(1-piperidinylmethyl)-2-furyl]-3-quinolinecarbonitrile]: the IC50 in test [3] is 0.02 µM.

As to `Cn1ccnc1Sc1ccc(Nc2c(C#N)cnc3cc(-c4cnc(N5CCOCC5)nc4)ccc23)cc1Cl` [Example 191, 4-{3-chloro-4-[(1-methyl-1H-imidazol-2-yl)sufanyl]anilino}-7-[2-(4-morpholinyl)-5-pyrimidinyl]-3-quinolinecarbonitrile], the results for the IC50 in test [1], in test [2] and in test [3] were 0.03 µM, above 10 µM and 0.001 µM, respectively.

With `CN1CCN(Cc2ccc(-c3ccc4c(Nc5ccc(Sc6nccn6C)c(Cl)c5)c(C#N)cnc4c3)cn2)CC1` [Example 221, 4-({3-chloro-4-[(1-methyl-1H-imidazol-2-yl)sulfanyl]phenyl}amino)-7-{6-[(4-methyl-1-piperazinyl)methyl]-3-pyridinyl}-3-quinolinecarbonitrile], the IC50 in test [1] (Homo sapiens, 96 h) is 0.074 µM; in test [2] (Homo sapiens, Caco-2, 96 h) it was above 1 µM.

For the compound `N#Cc1cnc2cc(-c3csc(CN4CCCCC4)c3)ccc2c1Nc1ccc(Sc2ccccc2)c(Cl)c1` [Example 462, 4-{[3-chloro-4-(phenylsulfanyl)phenyl]amino}-7-[5-(1-piperidinylmethyl)-3-thienyl]-3-quinolinecarbonitrile], in test [3], the IC50 amounted to 0.05 µM.
